Experiment [1] deals with diet-induced obese male Long-Evans rats. Description: In vivo efficacy: food intake and body weight change in diet-induced obese rats. The note with it: 10 mg/Kg, oral gavage once a day for 3 days. Also noted: species or system rat. The method, then: Vehicle consisted of 10% acacia and 0.15% saccharin in water.
House animals individually in a temperature regulated room (24° C.) with a reverse 12 hour light/dark cycle (dark 10:00/22:00). Make water and food (Teklad 95217, Harlan, Wis.) available ad libitum. Dose compounds orally once a day before onset of dark for 3 days. Measure daily food intake and body weight change for the 3 day period. The compound of Example 25 produces an average body weight reduction of about 6 grams@10 mg/Kg versus vehicle control.

A further experiment deals with T1, MCHR1 (Homo sapiens, UniProt Q99705).
T1 construct: The full-length cDNA for human MCHR1 is cloned; expressed in transfected cells; host or cells: AV12 cells previously transfected with Gα15; membranes
Nature of the experiment: 125I-MCH competitive binding assay with clone 43 membranes (SPA). Particulars: 125I-MCH binding, Ki from IC50 by Cheng-Prusoff. The method, then: The full-length cDNA for human MCHR1 is cloned from a human adult brain cDNA library (Edge Biosystems, Cat. 38356) by standard polymerase chain reaction (PCR) methodology employing the following primers: sense, 5′-GCCACCATGGACCT GGAAGCCTCGCTGC-3′; anti-sense, 5′-[…]-3′. The PCR reaction is performed in a final volume of 50 μL containing 5 μL of a 10× stock solution of PCR buffer, 1 μL of 10 mM dNTP mixture (200 μM final), 2 μl of 50 mM Mg(SO4) (2 mM final), 0.5 μL of 20 μM solutions of each primer (0.2 μM final), 5 μL of template cDNA containing 0.5 ng DNA, 0.5 μL of Platinum Taq High Fidelity DNA polymerase (Gibco Life Technologies) and 36 μL of H2O. […]
In order to generate cell lines stably expressing MCHR1, subclone the insert into the Xba I and Not I sites of pcDNA(+)-3.1-neomycin (Invitrogen). […] The G418-resistant colonies are further selected for MCHR1 expression by measuring MCH-stimulated Ca^2+ transients with a fluorometric imaging plate reader (FLIPR, Molecular Devices). […]
Binding of compounds to MCHR1 is assessed in a competitive binding assay employing ^125I-MCH, compound and clone 43 membranes. […] Non-specific binding is assessed in the presence of 0.1 μM unlabeled MCH. Bound ^125I-MCH is determined by placing sealed plates in a Microbeta Trilux (Perkin Elmer Life and Analytical Sciences Inc.) and counting after a 12 h delay. […]

Counter-ions that a name gives are not always drawn.

Usually Ki stands for a dissociation constant, usually derived from enzyme kinetics or from competition with a known ligand. High values mean weaker binding, low ones tighter binding.

T1 sequence (Q99705 whole entry): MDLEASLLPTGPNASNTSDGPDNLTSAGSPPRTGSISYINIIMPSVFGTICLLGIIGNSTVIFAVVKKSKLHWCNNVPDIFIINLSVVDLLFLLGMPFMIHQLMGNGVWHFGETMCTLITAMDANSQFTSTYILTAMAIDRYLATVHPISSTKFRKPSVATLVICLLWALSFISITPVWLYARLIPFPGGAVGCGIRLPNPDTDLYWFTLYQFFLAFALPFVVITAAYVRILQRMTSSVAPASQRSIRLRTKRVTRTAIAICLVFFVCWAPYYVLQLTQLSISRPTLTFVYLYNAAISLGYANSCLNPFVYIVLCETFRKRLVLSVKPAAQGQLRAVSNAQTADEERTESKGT

As to `COc1cc(N2CCc3cc(-c4ccc(Cl)cc4)sc3C2=O)ccc1NC(=O)CN1CCCC1.Cl` [Example 25, N-{4-[2-(4-Chloro-phenyl)-7-oxo-4,7-dihydro-5H-thieno[2,3-c]pyridin-6-yl]-2-methoxy-phenyl}-2-pyrrolidin-1-yl-acetamide hydrochloride], the “average body weight reduction versus vehicle control” value in experiment [1] was “about 6 grams”. Consider `O=C(CN1CCCC1)Nc1ccc(-n2ccc3cc(-c4ccc(Cl)cc4)sc3c2=O)cc1` [Example 58, N-{4-[2-(4-Chloro-phenyl)-7-oxo-7H-thieno[2,3-c]pyridin-6-yl]-phenyl}-2-pyrrolidin-1-yl-acetamide, hydrochloride], for which the inhibitory constant (Ki) on MCHR1 is ~3 nM.

The values above are taken from patent US8263772B2, “MCH receptor antagonists” (Eli Lilly and Company, priority 2006, dated 2012).
